The source of these data is patent US8580762B2, “Substituted purine and 7-deazapurine compounds” (Epizyme, Inc., priority 2010, dated 2013).

Where only a bound is given, the exact number is not on record here.

What is called IC50 is the midpoint of a concentration-inhibition curve.

Sequence of DOT1L(1-416) (Q8TEK3 1-416): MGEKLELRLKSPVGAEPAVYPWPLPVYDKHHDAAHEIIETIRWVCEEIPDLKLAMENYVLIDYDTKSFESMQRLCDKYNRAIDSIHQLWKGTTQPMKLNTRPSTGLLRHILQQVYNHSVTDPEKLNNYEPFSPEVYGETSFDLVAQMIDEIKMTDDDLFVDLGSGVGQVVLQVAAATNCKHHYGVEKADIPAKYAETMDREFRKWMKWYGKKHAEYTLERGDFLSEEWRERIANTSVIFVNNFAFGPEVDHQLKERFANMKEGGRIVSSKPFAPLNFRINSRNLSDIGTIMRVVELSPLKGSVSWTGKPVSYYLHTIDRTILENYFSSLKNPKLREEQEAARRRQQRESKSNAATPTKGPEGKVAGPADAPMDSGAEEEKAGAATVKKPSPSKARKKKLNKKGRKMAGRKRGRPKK

The target of the first experiment is DOT1L(1-416) (Homo sapiens, UniProt Q8TEK3). In words: Determination of IC50: DOT1L(1-416) methyltransferase assay, 3H-SAM, oligonucleosome substrate, Flashplate. It counts as biochemical. Conditions: class symbols; read-out: DOT1L IC50. In a few lines:
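Compounds in 10-point 3-fold DMSO dilutions were tested in reactions started with substrate mix of 200 nM [3H]-SAM, 600 nM unlabeled SAM and 20 nM oligonucleosome. Reactions ran 120 min at room temperature and were quenched with 100 μM SAM. Labeled substrate was captured on streptavidin Flashplates and counted by scintillation to give IC50.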
As for `CN(C[C@@H]1C[C@@H](O)[C@H](n2ccc3c(N)ncnc32)C1)[C@H]1C[C@@H](CCc2nc3cc(Cl)c(C(F)(F)F)cc3[nH]2)C1` [Compound 81, (1R,2R,4S)-2-(4-amino-7H-pyrrolo[2,3-d]pyrimidin-7-yl)-4-((((1r,3R)-3-(2-(5-chloro-6-(trifluoromethyl)-1H-benzo[d]imidazol-2-yl)ethyl)cyclobutyl) (methyl)amino)methyl) cyclopentanol], the IC50 lay in the range of 0.1 to 1 µM. Same read-out and setting: in the case of `CC(C)N(C[C@H]1O[C@@H](n2cnc3c(N)ncnc32)[C@H](O)[C@@H]1O)C1CC(CCc2nc3cc(C4CC4)ccc3[nH]2)C1` (stereo partly drawn) [Compound 112, (2R,3R,4S,5R)-2-(6-amino-9H-purin-9-yl)-5-(((3-(2-(5-cyclopropyl-1H-benzo[d]imidazol-2-yl)ethyl)cyclobutyl) (isopropyl)amino)methyl)tetrahydrofuran-3,4-diol] it was < 0.1 µM; in that of `CC(C)N(CC1CC(Cc2nc3cc(C(F)(F)F)ccc3[nH]2)C1)C[C@H]1C[C@@H](n2ccc3c(N)ncnc32)[C@H](O)[C@@H]1O` (some centres unmarked) [Compound 15], 1 to 10 µM; in that of `CC(C)(C)c1ccc2[nH]c(CC[C@H]3C[C@H](N(C[C@H]4O[C@@H](n5cnc6c(N)ncnc65)[C@H](O)[C@@H]4O)CC(F)(F)F)C3)nc2c1` [Compound 80, (2R,3R,4S,5R)-2-(6-amino-9H-purin-9-yl)-5-((((1s,3R)-3-(2-(5-(tert-butyl)-1H-benzo[d]imidazol-2-yl)ethyl)cyclobutyl) (2,2,2-trifluoroethyl)amino)methyl)tetrahydrofuran-3,4-diol], 0.1 to 1 µM. On the same count and under the same terms, in the case of `CC(C)(C)c1ccc2[nH]c(CCC3CC(N(C[C@H]4C[C@@H](n5ccc6c(N)ncnc65)[C@H](O)[C@@H]4O)CC(F)(F)F)C3)nc2c1` (stereo partly drawn) [Compound 66, (1R,2S,3R,5R)-3-(4-amino-7H-pyrrolo[2,3-d]pyrimidin-7-yl)-5-(((3-(2-(5-(tert-butyl)-1H-benzo[d]imidazol-2-yl)ethyl)cyclobutyl) (2,2,2-trifluoroethyl)amino)methyl)cyclopentane-1,2-diol] it was 0.1 to 1 µM. The same measure, in the same setting: in the case of `CN(C[C@H]1O[C@@H](n2cnc3c(N)ncnc32)[C@H](O)[C@@H]1O)[C@H]1C[C@H](CCc2nc3cc(C(C)(C)C)ccc3[nH]2)C1` [Compound 72, (2R,3R,4S,5R)-2-(6-amino-9H-purin-9-yl)-5-((((1s,3R)-3-(2-(5-(tert-butyl)-1H-benzo[d]imidazol-2-yl)ethyl)cyclobutyl)(methyl)amino)methyl)tetrahydrofuran-3,4-diol] it was < 0.1 µM. With `CC(C)(C)c1ccc2[nH]c(CCC3CC(N(C[C@H]4C[C@@H](n5ccc6c(N)ncnc65)[C@H](O)[C@@H]4O)C4CCC4)C3)nc2c1` (stereo partly drawn) [Compound 43, (1R,2S,3R,5R)-3-(4-amino-7H-pyrrolo[2,3-d]pyrimidin-7-yl)-5-(((3-(2-(5-(tert-butyl)-1H-benzo[d]imidazol-2-yl)ethyl)cyclobutyl)(cyclobutyl)amino)methyl)cyclopentane-1,2-diol], the IC50 is < 0.1 µM. Still for that read-out and setting: the result for `CN(C[C@H]1C[C@@H](n2ccc3c(N)ncnc32)[C@H](O)[C@@H]1O)[C@H]1C[C@H](CCc2nc3cc(Cl)c(Cl)cc3[nH]2)C1` [Compound 58, (1R,2S,3R,5R)-3-(4-amino-7H-pyrrolo[2,3-d]pyrimidin-7-yl)-5-((((1s,3R)-3-(2-(5,6-dichloro-1H-benzo[d]imidazol-2-yl)ethyl)cyclobutyl)(methyl)amino)methyl)cyclopentane-1,2-diol] reads < 0.1 µM; that for `CC(C)N(C[C@H]1O[C@@H](n2cnc3c(N)ncnc32)[C@H](O)[C@@H]1O)[C@H]1C[C@H](CCc2nc3cc(C4(C)CCC4)ccc3[nH]2)C1` [Compound 31, (2R,3R,4S,5R)-2-(6-amino-9H-purin-9-yl)-5-((isopropyl((1s,3R)-3-(2-(5-(1-methylcyclobutyl)-1H-benzo[d]imidazol-2-yl)ethyl)cyclobutyl)amino)methyl)tetrahydrofuran-3,4-diol], < 0.1 µM. Same read-out and setting: in the case of `CC(C)N(C[C@@H]1C[C@@H](O)[C@H](n2ccc3c(N)ncnc32)C1)[C@H]1C[C@H](CCc2nc3cc(Cl)c(C(F)(F)F)cc3[nH]2)C1` [Compound 103, (1R,2R,4S)-2-(4-amino-7H-pyrrolo[2,3-d]pyrimidin-7-yl)-4-((((1s,3S)-3-(2-(5-chloro-6-(trifluoromethyl)-1H-benzo[d]imidazol-2-yl)ethyl)cyclobutyl) (isopropyl)amino)methyl)cyclopentanol] it was 1 to 10 µM; in that of `CC(C)N(C[C@H]1O[C@@H](n2cnc3c(N)ncnc32)[C@H](O)[C@@H]1O)[C@H]1C[C@@H](CCc2nc3cc(C4(C#N)CC4)ccc3[nH]2)C1` [Compound 135, 1-(2-(2-((1S,3r)-3-((((2R,3S,4R,5R)-5-(6-amino-9H-purin-9-yl)-3,4-dihydroxytetrahydro-furan-2-yl)methyl)(isopropyl)amino)cyclobutyl)ethyl)-1H-benzo[d]imidazol-5-yl)cyclo-propanecarbonitrile], < 0.1 µM.

Regarding `CC(C)N(C[C@@H]1C[C@@H](O)[C@H](n2ccc3c(N)ncnc32)C1)[C@H]1C[C@@H](CCc2nc3cc(C(C)(C)C)ccc3[nH]2)C1` [Compound 101, (1R,2R,4S)-2-(4-amino-7H-pyrrolo[2,3-d]pyrimidin-7-yl)-4-((((1r,3R)-3-(2-(5-(tert-butyl)-1H-benzo[d]imidazol-2-yl)ethyl)cyclobutyl) (isopropyl)amino)methyl)cyclopentanol], the IC50 lay within 0.1 to 1 µM. Same read-out and setting: the result for `CC(C)(C)c1ccc2[nH]c(CCC3CC(N(CC4CC4)C[C@H]4C[C@@H](n5ccc6c(N)ncnc65)[C@H](O)[C@@H]4O)C3)nc2c1` (stereo partly drawn) [Compound 44, (1R,2S,3R,5R)-3-(4-amino-7H-pyrrolo[2,3-d]pyrimidin-7-yl)-5-(((3-(2-(5-(tert-butyl)-1H-benzo[d]imidazol-2-yl)ethyl)cyclobutyl)(cyclopropylmethyl)amino)methyl)cyclopentane-1,2-diol] reads < 0.1 µM. As for `CCN(C[C@H]1C[C@@H](n2ccc3c(N)ncnc32)[C@H](O)[C@@H]1O)C1CC(CCc2nc3cc(C(C)(C)C)ccc3[nH]2)C1` (stereo partly drawn) [Compound 25, (1R,2S,3R,5R)-3-(4-amino-7H-pyrrolo[2,3-d]pyrimidin-7-yl)-5-(((3-(2-(5-(tert-butyl)-1H-benzo[d]imidazol-2-yl)ethyl)cyclobutyl)(ethyl)amino)methyl)cyclopentane-1,2-diol], the IC50 is < 0.1 µM. Same read-out and setting: in the case of `CC(C)N(C[C@H]1O[C@@H](n2cnc3c(N)ncnc32)[C@H](O)[C@@H]1O)[C@H]1C[C@@H](CCc2nc3cc(Cl)c(C(F)(F)F)cc3[nH]2)C1` [Compound 5] it was < 0.1 µM; in that of `CN(C[C@H]1O[C@@H](n2cnc3c(N)ncnc32)[C@H](O)[C@@H]1O)[C@H]1C[C@@H](CCc2nc3cc(C4CCC4)ccc3[nH]2)C1` [Compound 131, (2R,3R,4S,5R)-2-(6-amino-9H-purin-9-yl)-5-((((1r,3S)-3-(2-(5-cyclobutyl-1H-benzo[d]imidazol-2-yl)ethyl)cyclobutyl) (methyl)amino)methyl) tetrahydrofuran-3,4-diol], < 0.1 µM.

As for `CC(C)N(C[C@H]1O[C@@H](n2ccc3c(N)ncnc32)[C@H](O)[C@@H]1O)[C@H]1C[C@@H](CCc2nc3cc(OC(F)(F)F)ccc3[nH]2)C1` [Compound 87, (2R,3R,4S,5R)-2-(4-amino-7H-pyrrolo[2,3-d]pyrimidin-7-yl)-5-((isopropyl((1r,3S)-3-(2-(5-(trifluoromethoxy)-1H-benzo[d]imidazol-2-yl)ethyl)cyclobutyl)amino)methyl)tetrahydrofuran-3,4-diol], the IC50 was < 0.1 µM. The same measure, in the same setting: the result for `CN(C[C@H]1C[C@@H](n2ccc3c(N)ncnc32)[C@H](O)[C@@H]1O)C1CC(CCc2nc3cc(Br)ccc3[nH]2)C1` (stereo partly drawn) [Compound 26, (1R,2S,3R,5R)-3-(4-amino-7H-pyrrolo[2,3-d]pyrimidin-7-yl)-5-(((3-(2-(5-bromo-1H-benzo[d]imidazol-2-yl)ethyl)cyclobutyl)(methyl)amino)methyl)cyclopentane-1,2-diol] reads < 0.1 µM; that for `CN(C[C@H]1O[C@@H](n2cnc3c(N)ncnc32)[C@H](O)[C@@H]1O)[C@H]1C[C@H](CCc2nc3cc(C4CCC4)ccc3[nH]2)C1` [Compound 132, (2R,3R,4S,5R)-2-(6-amino-9H-purin-9-yl)-5-((((1s,3R)-3-(2-(5-cyclobutyl-1H-benzo[d]imidazol-2-yl)ethyl)cyclobutyl) (methyl)amino)methyl) tetrahydrofuran-3,4-diol], < 0.1 µM; that for `CN(C[C@H]1C[C@@H](n2ccc3c(N)ncnc32)[C@H](O)[C@@H]1O)[C@H]1C[C@@H](CCc2nc3cc(OC(F)(F)F)ccc3[nH]2)C1` [Compound 37, (1R,2S,3R,5R)-3-(4-amino-7,1-pyrrolo[2,3-d]pyrimidin-7-yl)-5-((methyl((1r,3S)-3-(2-(5-(trifluoromethoxy)-1H-benzo[d]imidazol-2-yl)ethyl)cyclobutyl)amino)methyl)cyclopentane-1,2-diol], < 0.1 µM. On the same count and under the same terms, in the case of `CC(C)N(C[C@H]1O[C@@H](n2cnc3c(N)ncnc32)[C@H](O)[C@@H]1O)[C@H]1C[C@H](CCc2nc3cc(C4CCC4)ccc3[nH]2)C1` [Compound 114, (2R,3R,4S,5R)-2-(6-amino-9H-purin-9-yl)-5-((((1s,3R)-3-(2-(5-cyclobutyl-1H-benzo[d]imidazol-2-yl)ethyl)cyclobutyl) (isopropyl)amino)methyl)tetrahydrofuran-3,4-diol] it was < 0.1 µM.

Still in this experiment, the particulars now being: read-out: DOT1L IC50.
Take `CC(C)N(C[C@H]1O[C@@H](n2cnc3c(N)ncnc32)[C@H](O)[C@@H]1O)[C@H]1C[C@@H](CCc2nc3cc(Cl)c(C(F)(F)F)cc3[nH]2)C1` [Compound 5]: the IC50 amounted to 0.00059 µM. On the same count and under the same terms, the result for `CC(C)N(C[C@H]1O[C@@H](n2ccc3c(N)ncnc32)[C@H](O)[C@@H]1O)[C@H]1C[C@@H](CCc2nc3cc(OC(F)(F)F)ccc3[nH]2)C1` [Compound 87, (2R,3R,4S,5R)-2-(4-amino-7H-pyrrolo[2,3-d]pyrimidin-7-yl)-5-((isopropyl((1r,3S)-3-(2-(5-(trifluoromethoxy)-1H-benzo[d]imidazol-2-yl)ethyl)cyclobutyl)amino)methyl)tetrahydrofuran-3,4-diol] reads 0.0008 µM.
